The target in this assay is Ubiquitin-conjugating enzyme E2 N (Homo sapiens) (UniProt P61088). Kind of assay: UBE2N binders by NMR, biophysical, purified protein (AID 1552). The settings on record: NMR binding to purified UBE2N.

This note sets out measurements from PubChem BioAssay AID1552 (Sanford-Burnham Center for Chemical Genomics, 2009).

Activity calls are given as the source filed them. How the calls were made is not given here.

In general, Kd refers to the concentration at which binding is half-saturated.

Chain of Ubiquitin-conjugating enzyme E2 N (Homo sapiens) (P61088 whole entry, looked up): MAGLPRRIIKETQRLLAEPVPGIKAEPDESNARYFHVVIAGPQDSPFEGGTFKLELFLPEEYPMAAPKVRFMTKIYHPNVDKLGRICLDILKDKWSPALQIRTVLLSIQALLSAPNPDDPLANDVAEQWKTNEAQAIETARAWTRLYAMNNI

On to `CN1CCC(NC(=O)c2cnccn2)CC1`, for which the Kd was > 4 mM (inactive).
To `COc1cc(OC)c(-c2c(OC)cc(OC)cc2OC)c(OC)c1` belongs > 4 mM (inactive); to `CC(=O)N1CCc2ccccc2C1CC(=O)O` (stereo not drawn), > 4 mM (inactive).
The value for `CC(C)=CC(=O)Nc1ccc(S(N)(=O)=O)cc1` was > 4 mM (inactive); that for `COc1nc(C)ccc1-c1noc(-c2ccco2)n1` was > 4 mM (inactive).
The value for `O=NN1C(=O)c2ccccc2C1=O` was > 4 mM (inactive).
With `CC1(C)C2C[C@@H](O)[C@]3(C)C(CC[C@@]4(C)[C@H](c5ccoc5)OC(=O)[C@H]5O[C@]543)[C@@]2(C)[C@@H](O)C[C@H]1O` (stereo partly drawn), the Kd is > 4 mM (inactive).
On to `O=C(O)C1CCCCN1Cc1ccccc1` (stereo not drawn), for which the Kd was > 4 mM (inactive).
The value for `Nc1nc(O)c(C2=c3cc(Cl)ccc3=NC2=O)s1` was > 4 mM (inactive); that for `O=C1COc2cc(O)ccc21` was > 4 mM (inactive).
Turning to `Cc1cc(C)n(-c2ccc(Cl)nn2)n1`, the Kd was > 4 mM (inactive).
In the case of `O=C(O)C1CSC(c2ccccc2)N1` (stereo not drawn), the Kd is > 4 mM (inactive).
The value for `O=C(NCc1ccncc1)c1cccc(F)c1` was > 4 mM (inactive); that for `COc1ccc(-c2cc(=O)c3c(OC)c(OC)c(OC)c(OC)c3o2)cc1OC` was > 4 mM (inactive); that for `c1ccc(C2NCCc3[nH]cnc32)cc1` (stereo not drawn) was > 4 mM (inactive).
In the case of `COc1ccc(/C=C2\SC(N)=NC2=O)cc1`, the Kd is > 4 mM (inactive).
The value for `O=C1NC(=O)/C(=C\c2ccco2)S1` was > 4 mM (inactive); that for `Cc1nc(-c2ccccc2)ncc1CO` was > 4 mM (inactive); that for `OC(CCl)c1ccc(-n2cncn2)cc1` (stereo not drawn) was > 4 mM (inactive).
For `CCOC(=O)c1c(C)cc(O)c(C)c1O`, the Kd is > 4 mM (inactive).
The value for `CCOC(=O)CN1C(=O)c2ccccc2C1=O` was > 4 mM (inactive).
Consider `CC(=O)Nc1cccc(NC(=O)c2cccnc2)c1`, for which the Kd is > 4 mM (inactive).
With `C=CCCCCCCCCCCCC(O)CC(O)COC(C)=O` (stereo not drawn), the Kd is > 4 mM (inactive).
To `Cc1nn(C)c(N2CCOCC2)c1N` belongs > 4 mM (inactive); to `OCC1CCCC1O` (stereo not drawn), > 4 mM (inactive).
To `Cn1cnnc1Sc1ncnc(N)c1[N+](=O)[O-]` belongs > 4 mM (inactive); to `CN1C(=O)N(C)C2NC(=O)NC21` (stereo not drawn), > 4 mM (inactive); to `O=C(CC1Nc2ccccc2NC1=O)Nc1ccc(O)cc1` (stereo not drawn), > 4 mM (inactive).
To `NCc1ccccc1N1CCCCC1` belongs > 4 mM (inactive); to `O=C1N=c2ccccc2=C1c1sc(=S)[nH]c1O`, > 4 mM (inactive); to `CCN1CCC(=NO)CC1`, > 4 mM (inactive).
In the case of `CC(=O)N1CCN(c2ccc(O)cc2)CC1`, the Kd was > 4 mM (inactive).
The value for `CNc1nnc(Cc2csc(N)n2)s1` was > 4 mM (inactive).
To `CC(=O)Nc1cnn(Cc2ccc(Br)cc2)c1` belongs > 4 mM (inactive); to `COc1cc(-c2coc3cc(OC)c(OC)c(OC)c3c2=O)cc(OC)c1OC`, > 4 mM (inactive); to `OCc1ccc2c(c1)OCCCO2`, > 4 mM (inactive).
The value for `COc1nc(N2CCOCC2)nc(N)c1[N+](=O)[O-]` was > 4 mM (inactive).
For the molecule `CC1(C)CC2C1CC[C@]1(C)CCC3C(C(=O)O)CC(=O)O[C@@]32C1` (stereo partly drawn), the Kd is > 4 mM (inactive).
Turning to `CCn1nccc1C(=O)Nc1ccc(Cl)cc1Cl`, the Kd was > 4 mM (inactive).
Take `COc1cc2c(cc1OC)[C@@]13CCN4CC5=CCOC6CC(=O)N2C1[C@H]6[C@H]5C[C@H]43` (stereo partly drawn): the Kd is > 4 mM (inactive).
In the case of `CCC(=O)NC(=S)Nc1ccc(C(N)=O)cc1`, the Kd was > 4 mM (inactive).
The value for `O=C(O)c1ccc2[nH]c3c(c2c1)CSCC3` was > 4 mM (inactive); that for `O=C1CCN(c2ccccc2)N1` was > 4 mM (inactive).
To `COc1ccc(Cc2nccc3cc(OC)c(OC)cc23)cc1OC` belongs > 4 mM (inactive); to `Cc1cc2nc3c(=O)[nH]c(=O)nc-3n(CC(O)C(O)C(O)CO)c2cc1C` (stereo not drawn), > 4 mM (inactive); to `NCc1cccc2c1OCCCO2`, > 4 mM (inactive).
The value for `OCC1Cc2ccccc2CN1` (stereo not drawn) was > 4 mM (inactive); that for `OCc1ccc(N2CCOCC2)nc1` was > 4 mM (inactive).
On to `Cc1nccc2c1[nH]c1ccccc12`, for which the Kd was > 4 mM (inactive).
Take `CC1=CC(C)C(C(=O)O)C(C(=O)N2CCN(C)CC2)C1` (stereo not drawn): the Kd is > 4 mM (inactive).
The value for `O=C(O)CC1Sc2ccccc2NC1=O` (stereo not drawn) was > 4 mM (inactive); that for `O=C(O)CN1CCN(C2CCCC2)CC1` was > 4 mM (inactive); that for `O=C1c2ccccc2C(=O)N1CCc1ccccn1` was > 4 mM (inactive).
To `CC(C)CCCC(C)[C@H]1CCC2C3CC=C4C[C@@H](O)CC[C@]4(C)C3CC[C@@]21C` (stereo partly drawn) belongs > 4 mM (inactive).
To `O=C1CSC(=Nc2ccccc2)N1` belongs > 4 mM (inactive).
As to `O=C1NC(=S)NC(=O)C1=Cc1ccccc1O`, the Kd is > 4 mM (inactive).
To `COc1ccc(C2NC(C(=O)O)CS2)cc1` (stereo not drawn) belongs > 4 mM (inactive); to `Cc1cc(C)n(-c2nc(C)nc(N)n2)n1`, > 4 mM (inactive).
As to `CC1=NCCc2c1[nH]c1cc(O)ccc21`, the Kd was > 4 mM (inactive).
With `OCC1CCN(Cc2ccccc2)CC1`, the Kd was > 4 mM (inactive).
The value for `CC1(C)C(=O)C=C[C@@]2(C)C1C[C@@H](O)[C@]1(C)C2CC[C@@]2(C)[C@H](c3ccoc3)OC(=O)[C@H]3O[C@]321` (stereo partly drawn) was > 4 mM (inactive); that for `O=C(Nc1nnc(-c2ccccc2Cl)o1)c1ccco1` was > 4 mM (inactive); that for `Nc1ccc2c(C(F)(F)F)cc(=O)oc2c1` was > 4 mM (inactive).
The value for `Cc1nnc(SCC(N)=O)c2ccccc12` was > 4 mM (inactive); that for `COc1ccc2c(c1OC)C(=O)N(c1ncn[nH]1)C2` was > 4 mM (inactive); that for `Cc1nn2c(-c3ccncc3)nnc2c2ccccc12` was > 4 mM (inactive).
The value for `CCOC(=O)Cc1cc(=O)n2[nH]c(C)cc2n1` was > 4 mM (inactive); that for `Cn1c(=O)n(C)c2nc([N+](=O)[O-])c(Cl)cc21` was > 4 mM (inactive).
Take `O=C1NC(=O)/C(=C\c2ccncc2)S1`: the Kd was > 4 mM (inactive).
Take `Cc1cc(C(F)(F)F)n2nc(C(=O)O)c(Cl)c2n1`: the Kd was > 4 mM (inactive).
The value for `C[C@H]1O[C@@H](O[C@H]2[C@@H](O)C[C@H](O[C@H]3[C@@H](O)C[C@H](O[C@H]4CC[C@]5(C)C6C[C@@H](O)[C@]7(C)[C@@H](C8=CC(=O)OC8)CC[C@]7(O)C6CC[C@@H]5C4)O[C@@H]3C)O[C@@H]2C)C[C@H](O)[C@@H]1O` (stereo partly drawn) was > 4 mM (inactive); that for `O=C(O)C1=Cc2ccccc2OC1` was > 4 mM (inactive).
Consider `Fc1ccc2onc(C3CCNCC3)c2c1`, for which the Kd is > 4 mM (inactive).
